The values below come from patent US11603349B2, “Anti-fibrotic compounds” (Certa Therapeutics Pty Ltd, priority 2017, dated 2023).

Series [1] has as its system TGF-β induced [14C]-proline incorporation in rat mesangial cells. Put plainly: [14C]-proline incorporation assay (collagen biosynthesis). The format is cell-based. Particulars: Rattus norvegicus, Mesangial cell, 44 h, inhibition of TGF-β1 (1 ng/ml) induced [14C]-proline incorporation, IRMC cells.
A short description of series [2]: MTS tetrazolium reduction cell viability assay. Particulars: rat, rat mesangial cells (1097/IRMC cells), TGF-β1 stimulated, CC50 (μM), vs 1% DMSO vehicle.

pIC50: −log10 of the molar value. Where only a bound is given, the exact number is not on record here.

The molecule `COc1cc(/C=C/C(=O)Nc2ccccc2C(=O)O)ccc1OCc1ccccn1` [Example 55, (E)-2-(3-(3-methoxy-4-(pyridin-2-ylmethoxy)phenyl)acrylamido)benzoic acid] gave a pIC50 in series [1] of 4.35. Moreover, the CC50 at 48 h in series [2] worked out at 86.1 µM.
On the same counts, the results for `C#CCOc1ccc(/C=C/C(=O)Nc2ccccc2C(=O)NCCCN(C)C)cc1OC` [Example 32, (E)-N-(3-(dimethylamino)propyl)-2-(3-(3-methoxy-4-(prop-2-yn-1-yloxy)phenyl)acrylamido) benzamide] are 4.56 and 32 µM.
On the same counts, the results for `C#CCOCc1ccc(/C=C/C(=O)Nc2ccccc2C(=O)O)cc1OC` [Example 72, (E)-2-(3-(3-methoxy-4-((prop-2-yn-1-yloxy)methyl)phenyl)acrylamido)benzoic acid] are 4.82 and > 300 µM.
The molecule `C#CCOc1ccc(/C=C/C(=O)Nc2ccccc2C#N)c(OCCCN(C)C)c1OC` [Example 87, (E)-N-(2-cyanophenyl)-3-[2-[3-(dimethylamino)propoxy]-3-methoxy-4-prop-2-ynoxy-phenyl]prop-2-enamide] gave a pIC50 in series [1] of 5.43. The molecule also showed a CC50 at 48 h in series [2] of 12.1 µM.
On the same counts, the results for `C#CCOc1ccc(/C=C/C(=O)Nc2ccccc2C(=O)O)c(OCCN2CCOCC2)c1OC` [Example 84, 2-[[(E)-3-[3-methoxy-2-(2-morpholinoethoxy)-4-prop-2-ynoxy-phenyl]prop-2-enoyl]amino]benzoic acid] are 4.83 and > 300 µM.
On the same counts, the results for `COc1cc(/C=C/C(=O)Nc2ccc(Cl)cc2)ccc1OCC1COC1` [Example 153, (E)-N-(4-chlorophenyl)-3-(3-methoxy-4-(oxetan-3-ylmethoxy)phenyl)acrylamide] are 4.45 and > 300 µM.
For the molecule `C#CCOc1ccc(/C=C/C(=O)Nc2ccccc2-c2c[nH]cn2)cc1OC` [Example 25, (E)-N-(2-(1H-imidazol-4-yl)phenyl)-3-(3-methoxy-4-(prop-2-yn-1-yloxy)phenyl)acrylamide], in series [1], the pIC50 was 4.34. The CC50 at 48 h in series [2] is > 300 µM.
For `COc1cc(/C=C/C(=O)Nc2ccccc2C(=O)O)ccc1OCCc1ccccn1` [Example 56, (E)-2-(3-(3-methoxy-4-(2-(pyridin-2-yl)ethoxy)phenyl)acrylamido)benzoic acid] the same measures were 4.49 and 150 µM.
On the same counts, the results for `C#CCOc1ccc(/C=C/C(=O)Nc2ccccc2C(=O)NCCOC)cc1OC` [Example 33, (E)-2-(3-(3-methoxy-4-(prop-2-yn-1-yloxy)phenyl)acrylamido)-N-(2-methoxyethyl)benzamide] are 4.53 and 199 µM.
On the same counts, the results for `C#CCOc1ccc(/C=C/C(=O)Nc2ccccc2C#N)c(OC2CCNC2)c1OC` (centres unmarked) [Example 82, (E)-N-(2-cyanophenyl)-3-(3-methoxy-4-prop-2-ynoxy-2-pyrrolidin-3-yloxy-phenyl)prop-2-enamide] are 5.47 and 13.5 µM.
Consider `COc1ccc(/C=C/C(=O)Nc2cccc(C#N)c2)c(OCCN(C)C)c1` [Example 93, (E)-N-(3-cyanophenyl)-3-(2-(2-(dimethylamino)ethoxy)-4-methoxyphenyl)acrylamide], for which, in series [1], the pIC50 is 5.28. The molecule also had a cytotoxic concentration (CC50) at 48 h in series [2] of 17.2 µM.
`C#CCOc1ccc(/C=C/C(=O)Nc2ccccc2-c2n[nH]c(C)n2)cc1OC` [Example 2, (E)-3-(3-methoxy-4-(prop-2-yn-1-yloxy)phenyl)-N-(2-(5-methyl-1H-1,2,4-triazol-3-yl)phenyl)acrylamide] showed a pIC50 in series [1] of 4.98. The CC50 at 48 h in series [2] is > 300 µM.
For `COc1ccc(/C=C/C(=O)Nc2ccccc2C(=O)O)cc1OCc1cccnc1` [Example 63, (E)-2-(3-(4-methoxy-3-(pyridin-3-ylmethoxy)phenyl)acrylamido)benzoic acid] the same measures were 4.74 and 79.4 µM.

What is called pIC50 is the IC50 on a negative log10 scale, so that one unit is a factor of ten. A high value points to a low IC50. One may read the CC50 as the concentration that lowers cell viability or growth by half. Read a high CC50 as better tolerance by the cells.
